Laboratory results taken from PubChem BioAssay AID2060900 (Molecular Pharmacology Branch, DTP, NCI, 2025).
pIC50: −log10 of the molar value.

Tested on: 521955-158-R2-J5-PDC complex spheroids, viability
Assay: Anticancer human tumor 521955-158-R2-J5-PDC patient-derived pancreatic carcinoma cell line growth inhibition [RAS]
Conditions: for pIC50: curve of first compound; for viability, T/C: stronger effect = lower value; active = viability on the fitted dose curve at most 10% of control; inactive = the rest
Method in brief: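 Multi-cell-type spheroids: tumor cells plus HUVEC endothelial cells and mesenchymal stem cells. RAS-pathway inhibitors were combined with targeted agents, each dosed in half-log steps down from clinical Cmax, or from 10 microM when Cmax was unknown.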

[1] = second compound 0.000949 µM, first compound 0.00316 µM
[2] = second compound 0.000949 µM, first compound 0.01 µM
[3] = second compound 0.000949 µM, first compound 0.0316 µM
[4] = second compound 0.000949 µM, first compound 0.1 µM
[5] = second compound 0.000949 µM, first compound 0.316 µM
[6] = second compound 0.000949 µM, first compound 1 µM
[7] = second compound 0.003 µM, first compound 0.00316 µM
[8] = second compound 0.003 µM, first compound 0.01 µM
[9] = second compound 0.003 µM, first compound 0.0316 µM
[10] = second compound 0.003 µM, first compound 0.1 µM
[11] = second compound 0.003 µM, first compound 0.316 µM
[12] = second compound 0.003 µM, first compound 1 µM
[13] = second compound 0.00949 µM, first compound 0.00316 µM
[14] = second compound 0.00949 µM, first compound 0.01 µM
[15] = second compound 0.00949 µM, first compound 0.0316 µM
[16] = second compound 0.00949 µM, first compound 0.1 µM
[17] = second compound 0.00949 µM, first compound 0.316 µM
[18] = second compound 0.00949 µM, first compound 1 µM
[19] = second compound 0.03 µM, first compound 0.00316 µM
[20] = second compound 0.03 µM, first compound 0.01 µM
[21] = second compound 0.03 µM, first compound 0.0316 µM
[22] = second compound 0.03 µM, first compound 0.1 µM
[23] = second compound 0.03 µM, first compound 0.316 µM
[24] = second compound 0.03 µM, first compound 1 µM
[25] = second compound 0.0949 µM, first compound 0.00316 µM
[26] = second compound 0.0949 µM, first compound 0.01 µM
[27] = second compound 0.0949 µM, first compound 0.0316 µM
[28] = second compound 0.0949 µM, first compound 0.1 µM
[29] = second compound 0.0949 µM, first compound 0.316 µM
[30] = second compound 0.0949 µM, first compound 1 µM
[31] = second compound 0.3 µM, first compound 0.00316 µM
[32] = second compound 0.3 µM, first compound 0.01 µM
[33] = second compound 0.3 µM, first compound 0.0316 µM
[34] = second compound 0.3 µM, first compound 0.1 µM
[35] = second compound 0.3 µM, first compound 0.316 µM
[36] = second compound 0.3 µM, first compound 1 µM
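Note: compound exposure lasted seven days before the viability read.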
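Throughout, for viability, T/C: spheroids also contain HUVEC endothelial cells and mesenchymal stem cells as stroma.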

O=C(c1ccc(F)c(F)c1Nc1ccc(I)cc1F)N1CC(O)([C@@H]2CCCCN2)C1 + CCn1c(-c2cccnc2C(C)OC)c2c3cc(ccc31)N1CCOC(CC(NC(=O)C(C(C)C)N(C)C(=O)C3(F)CCN(C(=O)C#CC(C)(C)N(C)C)CC3)C(=O)N3CCCC(N3)C(=O)OCC(C)(C)C2)C1
7.38: pIC50 (second compound 0.00949 µM)
7.57: pIC50 (second compound 0.003 µM)
7.50: pIC50 (second compound 0.03 µM)
inactive: viability, T/C [1] 83% | viability, T/C [2] 53.3% | viability, T/C [3] 43.4% | viability, T/C [4] 36.1% | viability, T/C [5] 32.2% | viability, T/C [6] 22% | viability, T/C [7] 77.6% | viability, T/C [8] 62.5% | viability, T/C [9] 45.2% | viability, T/C [10] 36.1% | viability, T/C [11] 33% | viability, T/C [12] 18.6% | viability, T/C [13] 92.2% | viability, T/C [14] 60.9% | viability, T/C [15] 58.5% | viability, T/C [16] 42.2% | viability, T/C [17] 28.3% | viability, T/C [18] 24.2% | viability, T/C [19] 80% | viability, T/C [20] 59.6% | viability, T/C [21] 51.6% | viability, T/C [22] 39.2% | viability, T/C [23] 29% | viability, T/C [24] 22.2% | viability, T/C [25] 64.2% | viability, T/C [26] 56.8% | viability, T/C [27] 43.2% | viability, T/C [28] 36.4% | viability, T/C [29] 32.4% | viability, T/C [30] 23.9% | viability, T/C [31] 54.2% | viability, T/C [32] 46.5% | viability, T/C [33] 42.2% | viability, T/C [34] 37% | viability, T/C [35] 31.4% | viability, T/C [36] 17.8%
7.75: pIC50 (second compound 0.0949 µM)
8.17: pIC50 (second compound 0.3 µM)
7.76: pIC50 (second compound 0.000949 µM)

CCN1CCN(Cc2ccc(Nc3ncc(F)c(-c4cc(F)c5nc(C)n(C(C)C)c5c4)n3)nc2)CC1 + CCn1c(-c2cc(N3CCN(C)CC3)cnc2C(C)OC)c2c3cc(ccc31)-c1csc(n1)CC(NC(=O)C1CC1C)C(=O)N1CCCC(N1)C(=O)OCC(C)(C)C2
> 8.50: pIC50 (second compound 0.000949 µM) | pIC50 (second compound 0.003 µM) | pIC50 (second compound 0.00949 µM) | pIC50 (second compound 0.03 µM) | pIC50 (second compound 0.0949 µM) | pIC50 (second compound 0.3 µM)
inactive: viability, T/C [1] 43.2% | viability, T/C [2] 39.4% | viability, T/C [3] 39.4% | viability, T/C [4] 31.6% | viability, T/C [5] 43.6% | viability, T/C [6] 47.6% | viability, T/C [7] 39.4% | viability, T/C [8] 40.9% | viability, T/C [9] 41.2% | viability, T/C [10] 39.2% | viability, T/C [11] 37.9% | viability, T/C [12] 36.6% | viability, T/C [13] 35.8% | viability, T/C [14] 30.1% | viability, T/C [15] 28.4% | viability, T/C [16] 22.8% | viability, T/C [17] 27.5% | viability, T/C [18] 25.9% | viability, T/C [19] 23% | viability, T/C [20] 18.4% | viability, T/C [21] 17% | viability, T/C [22] 16.8% | viability, T/C [23] 16.4% | viability, T/C [24] 16.5% | viability, T/C [25] 12.1% | viability, T/C [26] 11% | viability, T/C [27] 11.4% | viability, T/C [28] 8.7% | viability, T/C [29] 13.6% | viability, T/C [30] 14.8% | viability, T/C [31] 9.79% | viability, T/C [32] 8.72% | viability, T/C [33] 10.5% | viability, T/C [34] 10% | viability, T/C [35] 13.9% | viability, T/C [36] 13.1%

O=C(c1ccc(F)c(F)c1Nc1ccc(I)cc1F)N1CC(O)([C@@H]2CCCCN2)C1 + CCn1c(-c2cc(N3CCN(C)CC3)cnc2C(C)OC)c2c3cc(ccc31)-c1csc(n1)CC(NC(=O)C1CC1C)C(=O)N1CCCC(N1)C(=O)OCC(C)(C)C2
> 8.50: pIC50 (second compound 0.003 µM) | pIC50 (second compound 0.00949 µM) | pIC50 (second compound 0.03 µM) | pIC50 (second compound 0.0949 µM) | pIC50 (second compound 0.3 µM)
active: viability, T/C [23] 10.3% | viability, T/C [24] 6.61% | viability, T/C [25] 8.68% | viability, T/C [26] 11.3% | viability, T/C [27] 12.6% | viability, T/C [28] 8.23% | viability, T/C [29] 9.48% | viability, T/C [30] 7.34% | viability, T/C [32] 7.85% | viability, T/C [33] 6.59% | viability, T/C [34] 9.27% | viability, T/C [35] 7.62% | viability, T/C [36] 6.97%
inactive: viability, T/C [1] 59.3% | viability, T/C [2] 50.1% | viability, T/C [3] 49.4% | viability, T/C [4] 38.6% | viability, T/C [5] 26.4% | viability, T/C [6] 24.1% | viability, T/C [7] 41.5% | viability, T/C [8] 46.7% | viability, T/C [9] 39% | viability, T/C [10] 26.8% | viability, T/C [11] 20.1% | viability, T/C [12] 17.4% | viability, T/C [13] 32.3% | viability, T/C [14] 32.1% | viability, T/C [15] 29.2% | viability, T/C [16] 17.4% | viability, T/C [17] 17.8% | viability, T/C [18] 15% | viability, T/C [19] 23.7% | viability, T/C [20] 18.3% | viability, T/C [21] 14.9% | viability, T/C [22] 10.8% | viability, T/C [31] 12.8%
7.68: pIC50 (second compound 0.000949 µM)

CC(C)n1nc(-c2ccc3oc(N)nc3c2)c2c(N)ncnc21
21.3 nM [middle of 4 runs]: IC50 (curve of compound)
inactive: viability, T/C (compound 0.000316 µM) 94.1% [middle of 4 runs] | viability, T/C (compound 0.001 µM) 101% [middle of 4 runs] | viability, T/C (compound 0.00316 µM) 96.2% [middle of 4 runs] | viability, T/C (compound 0.01 µM) 65.3% [middle of 4 runs] | viability, T/C (compound 0.0316 µM) 44.3% [middle of 4 runs] | viability, T/C (compound 0.1 µM) 37% [middle of 4 runs]
